From publication PMC7679134, “Probing the ionotropic activity of glutamate GluD2 receptor in HEK cells with genetically-engineered photopharmacology” (eLife, 2020)
Residue numbers refer to the chain shown, from its start. pIC50: −log10 of the molar value.

Columns and labels:
Format in all cases: cell-based
GluD2 [1] = biological target: T1, GluD2 (Mus musculus, UniProt Q61625, A654T/I677C); experiment: whole-cell patch-clamp dose-response ([…]) under […] nm light; […] under […] nm
T1 construct: gene Grid2; pcDNA3-GluD2 expressed in HEK tsA201 cells, conjugated with MAGu
T1 sequence (Q61625 24-1007 A654T/I677C): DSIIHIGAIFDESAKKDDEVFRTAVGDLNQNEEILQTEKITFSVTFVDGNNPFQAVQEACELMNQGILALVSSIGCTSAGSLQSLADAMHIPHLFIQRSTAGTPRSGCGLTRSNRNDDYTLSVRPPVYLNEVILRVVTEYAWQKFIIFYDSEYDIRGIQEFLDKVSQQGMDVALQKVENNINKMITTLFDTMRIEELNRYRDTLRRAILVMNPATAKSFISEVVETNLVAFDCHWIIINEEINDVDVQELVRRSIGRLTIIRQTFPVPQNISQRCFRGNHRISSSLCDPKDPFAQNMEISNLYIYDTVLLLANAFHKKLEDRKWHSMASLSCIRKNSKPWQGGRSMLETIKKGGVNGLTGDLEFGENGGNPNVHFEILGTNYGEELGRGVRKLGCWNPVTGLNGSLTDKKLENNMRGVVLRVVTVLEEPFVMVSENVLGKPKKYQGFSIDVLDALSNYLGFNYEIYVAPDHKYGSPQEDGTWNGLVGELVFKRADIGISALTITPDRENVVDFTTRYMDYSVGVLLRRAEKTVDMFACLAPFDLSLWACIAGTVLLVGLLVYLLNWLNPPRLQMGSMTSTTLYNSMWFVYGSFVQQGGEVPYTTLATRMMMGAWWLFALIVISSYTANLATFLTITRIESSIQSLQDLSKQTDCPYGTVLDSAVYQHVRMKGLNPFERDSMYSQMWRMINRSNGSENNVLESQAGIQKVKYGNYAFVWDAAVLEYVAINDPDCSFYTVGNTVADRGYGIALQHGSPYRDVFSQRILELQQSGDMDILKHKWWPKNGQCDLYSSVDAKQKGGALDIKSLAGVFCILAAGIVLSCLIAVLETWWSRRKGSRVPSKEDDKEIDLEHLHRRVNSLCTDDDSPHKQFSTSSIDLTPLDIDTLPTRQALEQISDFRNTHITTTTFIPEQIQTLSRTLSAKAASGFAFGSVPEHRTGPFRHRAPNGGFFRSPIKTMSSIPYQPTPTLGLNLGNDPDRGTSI

GluD2 [2] = biological target: T2, GluD2 (Mus musculus, UniProt Q61625, I677C); experiment: patch-clamp of DHPG-induced current under […] vs […] nm light; WT control insensitive
T2 construct: gene Grid2; non-Lurcher GluD2 (LiGluD2) co-expressed with mGlu1b in HEK tsA201 cells
T2 sequence (Q61625 24-1007 I677C): T1 sequence (Q61625 24-1007 A654T/I677C) with T631A

GluD2 [3] = biological target: T3, GluD2 (Mus musculus, UniProt Q61625, A654T/Q666C); experiment: whole-cell patch-clamp photoswitching after covalent labeling
T3 construct: gene Grid2; pcDNA3-GluD2 expressed in HEK tsA201 cells
T3 sequence (Q61625 24-1007 A654T/Q666C): T1 sequence (Q61625 24-1007 A654T/I677C) with Q643C, C654I

GluD2 [4] = biological target: T4, GluD2 (Mus musculus, UniProt Q61625, A654T/Q674C); experiment: as above
T4 construct: gene Grid2; pcDNA3-GluD2 expressed in HEK tsA201 cells
T4 sequence (Q61625 24-1007 A654T/Q674C): T1 sequence (Q61625 24-1007 A654T/I677C) with Q651C, C654I

GluD2 [5] = biological target: T5, GluD2 (Mus musculus, UniProt Q61625, A654T/D670C); experiment: as above
T5 construct: gene Grid2; pcDNA3-GluD2 expressed in HEK tsA201 cells
T5 sequence (Q61625 24-1007 A654T/D670C): T1 sequence (Q61625 24-1007 A654T/I677C) with D647C, C654I

Compound: N=C(N)c1ccc(OCCCCCOc2ccc(C(=N)N)cc2)cc1 [Pentamidine]
- pIC50 (GluD2 [1]): 5.29

Compound: N=C(N)NCC(=O)Nc1ccc(/N=N/c2ccc(NC(=O)CCN3C(=O)C=CC3=O)cc2)cc1 [MAGu]
- % reduction of DHPG-induced current (535 vs 380 nm) (GluD2 [2]): 22.8 % reduction of DHPG-induced current (535 vs 380 nm)
- % photoswitching (relative to pentamidine block) (GluD2 [3]): 15.5 % photoswitching (relative to pentamidine block)
- % photoswitching (relative to pentamidine block) (GluD2 [4]): 20.5 % photoswitching (relative to pentamidine block)
- % photoswitching (relative to pentamidine block) (GluD2 [5]): 14.6 % photoswitching (relative to pentamidine block)
